According to ChEMBL document CHEMBL1201862, “PubChem BioAssay data set” (2004):
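Five compound concentrations were applied to cells in 96-well plates for 48 hours; endpoints were derived by simple linear interpolation of the resulting dose-response curve. Abbreviation: GI50, concentration required for 50% inhibition of growth.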 Active and inactive are the calls of the source. Cut-off read from the data, not from the text of the source: active = GI50 up to about 1.1 µM and inactive = higher.

Tests used:
Test in all cases: NCI anticancer screen, dose series, 48 h
[1] = test system: DU-145
[2] = test system: HCT-15
[3] = test system: HL-60
[4] = test system: LOX IMVI
[5] = test system: MDA-MB-435
[6] = test system: NCI-H226
[7] = test system: NCI-H460
[8] = test system: OVCAR-4
[9] = test system: OVCAR-5
[10] = test system: SF-539
[11] = test system: SK-MEL-28
[12] = test system: SN12C
[13] = test system: T47D
[14] = test system: U-251
[15] = test system: K562
[16] = test system: MOLT-4
[17] = test system: NCI-H522
[18] = test system: PC-3
[19] = test system: RPMI-8226
[20] = test system: SR

SMILES | GI50 [1] | GI50 [2] [µM] | GI50 [3] | GI50 [4] | GI50 [5] | GI50 [6] | GI50 [7] | GI50 [8] | GI50 [9] | GI50 [10] | GI50 [11] | GI50 [12] | GI50 [13] | GI50 [14] | GI50 [15] | GI50 [16] | GI50 [17] | GI50 [18] | GI50 [19] | GI50 [20]
N#C/C(=C/NC(N)=S)C(N)=O | > 100 µM (inactive) | > 100 | > 100 µM (inactive) | > 100 µM (inactive) | > 100 µM (inactive) | > 100 µM (inactive) | > 100 µM (inactive) | > 100 µM (inactive) | > 100 µM (inactive) | > 100 µM (inactive) | > 100 µM (inactive) | > 100 µM (inactive) | > 100 µM (inactive) | > 100 µM (inactive) |  |  |  |  |  | 
CC1(F)C=CC(=O)C=C1 | > 100 µM (inactive) | 20 | 27.6 µM (inactive) | 16.3 µM (inactive) | 35.7 µM (inactive) | 86.9 µM (inactive) | > 100 µM (inactive) | 79.3 µM (inactive) | 58.7 µM (inactive) | 37.9 µM (inactive) | > 100 µM (inactive) | > 100 µM (inactive) |  | 24.7 µM (inactive) | 44 µM (inactive) | 26.4 µM (inactive) | 37.4 µM (inactive) | 69.7 µM (inactive) | 29.4 µM (inactive) | 32.6 µM (inactive)
Cc1ccc2c(c1)C(=O)N1CCC[C@H]1C=N2 | 7.78 µM (inactive) | 28.5 |  | 23.6 µM (inactive) | 16.7 µM (inactive) |  | 20.4 µM (inactive) | 19.4 µM (inactive) | 28.4 µM (inactive) | 18.3 µM (inactive) | 22.7 µM (inactive) | 23 µM (inactive) | 18.4 µM (inactive) | 16.3 µM (inactive) | 7.76 µM (inactive) | 18.8 µM (inactive) | 5.13 µM (inactive) | 17.7 µM (inactive) | 10.1 µM (inactive) | 
Cc1cnoc1NS(=O)(=O)c1ccc(Nc2nnc(/C=C/c3c(O)ccc4ccccc34)c(=O)n2N)cc1 | 43.8 µM (inactive) | 6.37 | 0.74 µM (active) | 19.1 µM (inactive) | 26.7 µM (inactive) |  |  | 27.9 µM (inactive) | 40.1 µM (inactive) |  |  | 29.4 µM (inactive) | 20.1 µM (inactive) |  | 24.2 µM (inactive) | 0.658 µM (active) |  |  | 20.2 µM (inactive) | 21.8 µM (inactive)
C1COCCN1.CN(C)c1ccc(-c2c(C#N)c(N)nc(S)c2C#N)cc1 | > 100 µM (inactive) | > 100 | > 100 µM (inactive) | 80.2 µM (inactive) | 83.4 µM (inactive) | 22.6 µM (inactive) | 40.2 µM (inactive) | 35 µM (inactive) | > 100 µM (inactive) | > 100 µM (inactive) | 82.6 µM (inactive) | 66.2 µM (inactive) |  | > 100 µM (inactive) | > 100 µM (inactive) |  | 29 µM (inactive) | 30.5 µM (inactive) |  | 23.2 µM (inactive)
O=[N+]([O-])/C(C(Cl)=C(Cl)Cl)=C1\NCCS1 | > 100 µM (inactive) | 35.6 | 16.9 µM (inactive) | 20.1 µM (inactive) | 35.8 µM (inactive) | > 100 µM (inactive) | 83.9 µM (inactive) | 29.1 µM (inactive) | > 100 µM (inactive) | 42.5 µM (inactive) | 48.2 µM (inactive) | 36.5 µM (inactive) |  | 45.8 µM (inactive) | 18.8 µM (inactive) | 21.9 µM (inactive) |  | 35.6 µM (inactive) | 19 µM (inactive) | 18.4 µM (inactive)
CC(C)CC(NC(=O)C(C)(CI)Cc1ccccc1)C(=O)Nc1ccccc1 (stereo unspecified) | > 100 µM (inactive) | > 100 | 33.2 µM (inactive) | > 100 µM (inactive) | > 100 µM (inactive) | > 100 µM (inactive) | > 100 µM (inactive) | > 100 µM (inactive) | > 100 µM (inactive) | > 100 µM (inactive) |  | > 100 µM (inactive) |  | > 100 µM (inactive) | > 100 µM (inactive) | 56.1 µM (inactive) | > 100 µM (inactive) | > 100 µM (inactive) | > 100 µM (inactive) | 22.1 µM (inactive)
O=c1oc2ccccc2n1CCCn1c(=O)oc2ccccc21 | > 100 µM (inactive) | > 100 | > 100 µM (inactive) | > 100 µM (inactive) | > 100 µM (inactive) | > 100 µM (inactive) | > 100 µM (inactive) |  | > 100 µM (inactive) | > 100 µM (inactive) | > 100 µM (inactive) | > 100 µM (inactive) |  | 47.9 µM (inactive) | > 100 µM (inactive) | > 100 µM (inactive) |  | > 100 µM (inactive) | > 100 µM (inactive) | > 100 µM (inactive)
O=C(O)/C=C/c1ccc2c(c1)CC1(Cc3ccccc3C1)C2 |  | 40.3 | 37.5 µM (inactive) | 38.1 µM (inactive) | 80.5 µM (inactive) | 33.7 µM (inactive) |  | 39 µM (inactive) | > 100 µM (inactive) | 96.4 µM (inactive) |  | 44.5 µM (inactive) | > 100 µM (inactive) | 49.5 µM (inactive) | 47.2 µM (inactive) | 29.5 µM (inactive) | 54.5 µM (inactive) | 53.6 µM (inactive) | 96.8 µM (inactive) | 23.2 µM (inactive)
CC(O)CCCOC(c1ccccc1)(c1ccccc1)c1ccccc1 (stereo unspecified) | 16.6 µM (inactive) | 15.4 | 17.6 µM (inactive) | 15.2 µM (inactive) | 16.5 µM (inactive) | 16.1 µM (inactive) | 16.1 µM (inactive) | 14.8 µM (inactive) | 16.7 µM (inactive) | 17.2 µM (inactive) | 16.4 µM (inactive) | 16.7 µM (inactive) |  | 16.4 µM (inactive) | 22.9 µM (inactive) | 16.6 µM (inactive) | 13.7 µM (inactive) | 11.5 µM (inactive) | 15.2 µM (inactive) | 20.1 µM (inactive)
Cc1ccc(N/C(=C(/C(Cl)=C(Cl)Cl)[N+](=O)[O-])n2nnc3ccccc32)cc1 |  | 24.3 |  |  | 20.1 µM (inactive) | 18.5 µM (inactive) | 18 µM (inactive) | 18.7 µM (inactive) | 20.1 µM (inactive) | 15.2 µM (inactive) | 17.5 µM (inactive) | 20.4 µM (inactive) | 22.5 µM (inactive) |  | 23.6 µM (inactive) | 9.64 µM (inactive) |  | 17.5 µM (inactive) | 20.2 µM (inactive) | 
CC(C)CC(=O)NC(C(=O)NC(C(=O)NC(CC(C)C)C(O)CC(=O)NC(C)C(=O)NC(CC(C)C)C(O)CC(=O)O)C(C)C)C(C)C (stereo unspecified) | > 100 µM (inactive) | > 100 |  | > 100 µM (inactive) | > 100 µM (inactive) | 0.436 µM (active) | > 100 µM (inactive) | > 100 µM (inactive) | > 100 µM (inactive) | > 100 µM (inactive) | > 100 µM (inactive) | > 100 µM (inactive) |  | > 100 µM (inactive) | > 100 µM (inactive) | > 100 µM (inactive) | > 100 µM (inactive) | > 100 µM (inactive) | > 100 µM (inactive) | > 100 µM (inactive)
